Patent publication US7235580B2, “Mitotic kinesin inhibitors” (Merck & Co., Inc., priority 2002, dated 2007)

Each compound was assayed against T1, human KSP motor domain (KSP(367H)) (Homo sapiens, UniProt P52732) (assay: Kinesin ATPase In Vitro Assay). Settings: kinesin motor domain with microtubules, 1 mM ATP, 23° C.; free phosphate by quinaldine red/ammonium molybdate.
T1 construct: were used to amplify the motor domain and the neck linker region; made in house; host or cells: E. coli BL21 (DE3), pRSETa
T1 sequence (P52732 18-359 limits assumed): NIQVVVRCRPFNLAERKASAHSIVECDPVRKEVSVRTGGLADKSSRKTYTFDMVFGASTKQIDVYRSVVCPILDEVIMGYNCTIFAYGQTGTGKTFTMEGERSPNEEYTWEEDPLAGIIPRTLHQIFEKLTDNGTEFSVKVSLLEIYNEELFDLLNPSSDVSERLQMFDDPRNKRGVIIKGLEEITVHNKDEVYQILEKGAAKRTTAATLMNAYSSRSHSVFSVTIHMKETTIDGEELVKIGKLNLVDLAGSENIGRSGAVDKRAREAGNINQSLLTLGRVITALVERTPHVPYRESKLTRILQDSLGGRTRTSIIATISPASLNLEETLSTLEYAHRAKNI
Format: biochemical
Source text: I. Kinesin ATPase In Vitro Assay
Cloning and Expression of Human Poly-histidine Tagged KSP Motor Domain (KSP(367H))
Plasmids for the expression of the human KSP motor domain construct were cloned by PCR using a pBluescript full length human KSP construct (Blangy et al., Cell, vol. 83, pp 1159-1169, 1995) as a template. The N-terminal primer 5′-[…] (SEQ.ID.NO.: 1) and the C-terminal primer 5′-[…] […] (SEQ.ID.NO.: 2) were used to amplify the motor domain and the neck linker region. The PCR products were digested with AseI and XhoI, ligated into the NdeI/XhoI digestion product of pRSETa (Invitrogen) and transformed into E. coli BL21 (DE3).
Cells were grown at 37° C. to an OD600 of 0.5. After cooling the culture to room temperature expression of KSP was induced with 100 μM IPTG and incubation was continued overnight. Cells were pelleted by centrifugation and washed once with ice-cold PBS. Pellets were flash-frozen and stored −80° C.
Cell pellets were thawed on ice and resuspended in lysis buffer (50 mM K-HEPES, pH 8.0, 250 mM KCl, 0.1% Tween, 10 mM imidazole, 0.5 mM Mg-ATP, 1 mM PMSF, 2 mM benzimidine, 1× complete protease inhibitor cocktail (Roche)). Cell suspensions were incubated with 1 mg/ml lysozyme and 5 mM β-mercaptoethanol on ice for 10 minutes, followed by sonication (3×30 sec). All subsequent procedures were performed at 4° C. Lysates were centrifuged at 40,000×g for 40 minutes. Supernatants were diluted and loaded onto an SP Sepharose column (Pharmacia, 5 ml cartridge) in buffer A (50 mM K-HEPES, pH 6.8, 1 mM MgCl2, 1 mM EGTA, 10 μM Mg-ATP, 1 mM DTT) and eluted with a 0 to 750 mM KCl gradient in buffer A. Fractions containing KSP were pooled and incubated with Ni-NTA resin (Qiagen) for one hour. The resin was washed three times with buffer B (Lysis buffer minus PMSP and protease inhibitor cocktail), followed by three 15-minute incubations and washes with buffer B. Finally, the resin was incubated and washed for 15 minutes three times with buffer C (same as buffer B except for pH 6.0) and poured into a column. KSP was eluted with elution buffer (identical to buffer B except for 150 mM KCl and 250 mM imidazole). KSP-containing fractions were pooled, made 10% in sucrose, and stored at −80° C.
Microtubules are prepared from tubulin isolated from bovine brain. Purified tubulin (>97% MAP-free) at 1 mg/ml is polymerized at 37° C. in the presence of 10 μM paclitaxel, 1 mM DTT, 1 mM GTP in BRB80 buffer (80 mM K-PIPES, 1 mM EGTA, 1 mM MgCl2 at pH 6.8). The resulting microtubules are separated from non-polymerized tubulin by ultracentrifugation and removal of the supernatant. The pellet, containing the microtubules, is gently resuspended in 10 μM paclitaxel, 1 mM DTT, 50 μg/ml ampicillin, and 5 μg/ml chloramphenicol in BRB80.
The kinesin motor domain is incubated with microtubules, 1 mM ATP (1:1 MgCl2: Na-ATP), and compound at 23° C. in buffer containing 80 mM K-HEPES (pH 7.0), 1 mM EGTA, 1 mM DTT, 1 mM MgCl2, and 50 mM KCl. The reaction is terminated by a 2-10 fold dilution with a final buffer composition of 80 mM HEPES and 50 mM EDTA. Free phosphate from the ATP hydrolysis reaction is measured via a quinaldine red/ammonium molybdate assay by adding 150 μl of quench C buffer containing a 2:1 ratio of quench A:quench B. Quench A contains 0.1 mg/ml quinaldine red and 0.14% polyvinyl alcohol; quench B contains 12.3 mM ammonium molybdate tetrahydrate in 1.15 M sulfuric acid. The reaction is incubated for 10 minutes at 23° C., and the absorbance of the phospho-molybdate complex is measured at 540 nm.

**Q.** Which IC50 does the source give for CN(C)CCNCC1(c2ccccc2)C=C(c2cc(F)ccc2F)CN1C(=O)N(C)C (stereo not drawn) [Compound 3-2, 4-(2,5-Difluorophenyl)-2-({[2-(dimethylamino)ethyl]amino}methyl)-N,N-dimethyl-2-phenyl-2,5-dihydro-1H-pyrrole-1-carboxamide] here?
**A.** Its IC50 is ≤ 50 µM.

**Q.** CN(C)C(=O)N1CC(c2cc(Cl)ccc2F)=CC1(CCCNC(N)=O)c1ccccc1 (stereo not drawn) [Compound 23-1, 2-{3-[(aminocarbonyl)amino]propyl}-4-(5-chloro-2-fluorophenyl)-N,N-dimethyl-2-phenyl-2,5-dihydro-1H-pyrrole-1-carboxamide] was tested. Which IC50 did it give?
**A.** Its IC50 is ≤ 50 µM.

**Q.** For CN(C(=O)N1CC(c2cc(F)ccc2F)=CC1(CO)c1ccccc1)C1CCN(CS(C)(=O)=O)CC1 (stereo not drawn) [Compound 13-1, 4-(2,5-difluorophenyl)-2-(hydroxymethyl)-N-methyl-N-{1-[(methylsulfonyl)methyl]piperidin-4-yl}-2-phenyl-2,5-dihydro-1H-pyrrole-1-carboxamide], which IC50 is on record?
**A.** Its IC50 is ≤ 50 µM.
